Measured values: US20250034135A1, “ANTI-APOPTOTIC PROTEIN BCL-2 INHIBITOR, PHARMACEUTICAL COMPOSITION AND USES THEREOF” (HANGZHOU HEALZEN THERAPEUTICS CO., LTD., priority 2021, published 2025)
pIC50: −log10 of the molar value.

Target: BCL2 (Homo sapiens (Human), UniProt P10415)
Assay: Molecular level activity test of anti-apoptotic protein BCL2 (HTRF, binding to Bim peptide)
Conditions: HTRF, binding of BCL2 to Bim peptide; read-out: BCL2 nM (inhibitory activity, IC50)
Procedure, shortened: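 Step one: compound, supplied in 2% DMSO, is mixed with His-tagged BCL2 and biotinylated Bim peptide and reacted for 1 h. Step two: anti-His and streptavidin-XL665 reagents in detection buffer are added. Step three: after a 4 h room-temperature incubation, time-resolved fluorescence is measured.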

BCL2, sequence (P10415 whole entry): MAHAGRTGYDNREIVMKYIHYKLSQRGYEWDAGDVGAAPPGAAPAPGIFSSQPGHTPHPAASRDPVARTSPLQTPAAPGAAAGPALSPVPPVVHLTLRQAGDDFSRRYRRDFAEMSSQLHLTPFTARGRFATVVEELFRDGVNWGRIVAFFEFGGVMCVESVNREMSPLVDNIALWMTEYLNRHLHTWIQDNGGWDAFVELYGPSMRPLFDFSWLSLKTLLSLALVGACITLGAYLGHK

pIC50, > 8.00:
CC(C)c1ccccc1[C@@H]1CCCN1C1CC2(CCN(c3cc(Oc4cnc5[nH]cc(F)c5c4)c(C(=O)NS(=O)(=O)c4cc([N+](=O)[O-])c(NC[C@H]5CC[C@](C)(O)CC5)c5[nH]cnc45)cn3)CC2)C1 [compound 037, 4-((3-fluoro-1H-pyrrolo[2,3-b]pyrid-5-yl)oxy)-N-((7-((((1r,4r)-4-hydroxy-4-methylcyclohexyl)methyl)amino)-6-nitro-1H-benzo[d]imidazol-4-yl)sulfonyl)-6-(2-((S)-2-(2-isopropylphenyl)pyrrolidin-1-yl)-7-azaspiro[3.5]non-7-yl) nicotinamide]
CC(=O)N1CCC(F)(CNc2c([N+](=O)[O-])cc(S(=O)(=O)NC(=O)c3cc(F)c(N4CCC5(CC4)CC(N4CCC[C@H]4c4ccccc4C(C)C)C5)cc3Oc3cnc4[nH]ccc4c3)c3nc[nH]c23)CC1 [compound 028, (S)-2-((1H-pyrrolo[2,3-b]pyrid-5-yl)oxy)-N-((7-(((1-acetyl-4-fluoropiperid-4-yl)methyl)amino)-6-nitro-1H-benzo[d]imidazol-4-yl)sulfonyl)-5-fluoro-4-(2-(2-(2-isopropylphenyl)pyrrolidin-1-yl)-7-azaspiro[3.5]non-7-yl)benzamide]
COc1ccc(CN2CCN(C3CC4(CCN(c5cc(Oc6cnc7[nH]ccc7c6)c(C(=O)NS(=O)(=O)c6cc([N+](=O)[O-])c(NC[C@H]7CC[C@](C)(O)CC7)c7ocnc67)cc5F)CC4)C3)[C@H](c3ccccc3C(C)C)C2)cc1 [compound 114, 2-((1H-pyrrolo[2,3-b]pyrid-5-yl)oxy)-5-fluoro-N-((7-((((1r, 4r)-4-hydroxy-4-methylcyclohexyl)methyl)amino)-6-nitrobenzo[d]oxazol-4-yl)sulfonyl)-4-(2-((R)-2-(2-isopropylphenyl)-4-(4-methoxybenzyl)piperazin-1-yl)-7-azaspiro[3.5]non-7-yl)benzamide]
CC(C)c1ccccc1[C@@H]1CCCN1C1CC2(CCN(c3cc(Oc4cnc5[nH]ccc5c4)c(C(=O)NS(=O)(=O)c4cc([N+](=O)[O-])c(NCC5(F)CCN(C6CCOCC6)CC5)c5[nH]cnc45)cn3)CC2)C1 [compound 023]
COc1ccc(CN2CCN(C3CC4(CCN(c5cc(Oc6cnc7[nH]ccc7c6)c(C(=O)NS(=O)(=O)c6cc([N+](=O)[O-])c(NCC7(F)CCOCC7)c7c6OCO7)cc5F)CC4)C3)[C@H](c3ccccc3C(C)C)C2)cn1 [compound 126]
CC(C)c1ccccc1C1CN(C2CCOCC2)CCN1C1CC2(C1)CN(c1cc(Oc3cnc4[nH]ccc4c3)c(C(=O)NS(=O)(=O)c3ccc(NC[C@H]4CC[C@](C)(O)CC4)c([N+](=O)[O-])c3)cn1)C2 (some centres unmarked) [compound 052, 4-((1H-pyrrolo[2,3-b]pyrid-5-yl)oxy)-N-((4-((((1r,4r)-4-hydroxy-4-methylcyclohexyl)methyl)amino)-3-nitrophenyl)sulfonyl)-6-(6-(2-(2-isopropylphenyl)-4-(tetrahydro-2H-pyran-4-yl)piperazin-1-yl)-2-azaspiro[3.3]hept-2-yl) nicotinamide]
CC(C)c1ccccc1[C@@H]1CN(Cc2cccc(F)c2F)CCN1C1CC2(CCN(c3cc(Oc4cnc5[nH]ccc5c4)c(C(=O)NS(=O)(=O)c4ccc(NC[C@H]5CC[C@](C)(O)CC5)c([N+](=O)[O-])c4)cc3F)CC2)C1 [compound 218, 2-((1H-pyrrolo[2,3-b]pyrid-5-yl)oxy)-4-(2-((R)-4-(2,3-difluorobenzyl)-2-(2-isopropylphenyl)piperazin-1-yl)-7-azaspiro[3.5]non-7-yl)-5-fluoro-N-((4-((((1r, 4r)-4-hydroxy-4-methylcyclohexyl)methyl)amino)-3-nitrophenyl)sulfonyl)benzamide]
COc1ccc(CN2CCN(C3CC4(CCN(c5cc(Oc6cnc7[nH]ccc7c6)c(C(=O)NS(=O)(=O)c6ccc(NCC7CCOCC7)c([N+](=O)[O-])c6)cc5F)CC4)C3)C(c3ccccc3C(C)C)C2)cc1 (centres unmarked) [compound 064, 2-((1H-pyrrolo[2,3-b]pyrid-5-yl)oxy)-5-fluoro-4-(2-(2-(2-isopropylphenyl)-4-(4-methoxybenzyl)piperazin-1-yl)-7-azaspiro[3.5]non-7-yl)-N-((3-nitro-4-(((tetrahydro-2H-pyran-4-yl)methyl)amino)phenyl)sulfonyl)benzamide]
CC(C)c1ccccc1[C@@H]1CCCN1C1CC2(CCN(c3cc(Oc4cnc5[nH]ccc5c4)c(C(=O)NS(=O)(=O)c4cc([N+](=O)[O-])c(NCC5(F)CCN(C(C)C)CC5)c5[nH]cnc45)cn3)CC2)C1 [compound 021, (S)-4-((1H-pyrrolo[2,3-b]pyrid-5-yl)oxy)-N-((7-(((4-fluoro-1-isopropylpiperid-4-yl)methyl)amino)-6-nitro-1H-benzo[d]imidazol-4-yl)sulfonyl)-6-(2-(2-(2-isopropylphenyl)pyrrolidin-1-yl)-7-azaspiro[3.5]non-7-yl) nicotinamide]
COc1ccc(CN2CCN(C3CC4(C3)CN(c3ccc(C(=O)NS(=O)(=O)c5cc([N+](=O)[O-])c(NC[C@H]6CC[C@](C)(O)CC6)c6[nH]cnc56)c(Oc5cnc6[nH]ccc6c5)c3)C4)C(c3ccccc3C(C)C)C2)cc1 (some centres unmarked) [compound 040, 2-((1H-pyrrolo[2,3-b]pyrid-5-yl)oxy)-N-((7-((((1r,4r)-4-hydroxy-4-methylcyclohexyl)methyl)amino)-6-nitro-1H-benzo[d]imidazol-4-yl)sulfonyl)-4-(6-(2-(2-isopropylphenyl)-4-(4-methoxybenzyl)piperazin-1-yl)-2-azaspiro[3.3]hept-2-yl)benzamide]
CC(C)c1ccccc1[C@@H]1CCCN1C1CC2(CCN(c3ccc(C(=O)NS(=O)(=O)c4cc([N+](=O)[O-])c(NCC5(F)CCOCC5)c5c4OCO5)c(Oc4cnc5[nH]ccc5c4)c3)CC2)C1 [compound 159, (S)-2-((1H-pyrrolo[2,3-b]pyrid-5-yl)oxy)-N-((7-(((4-fluorotetrahydro-2H-pyran-4-yl)methyl)amino)-6-nitrobenzo[d][1,3]dioxocyclopent-4-yl)sulfonyl)-4-(2-(2-(2-isopropylphenyl)pyrrolidin-1-yl)-7-azaspiro[3.5]non-7-yl)benzamide]
COc1ccc(CN2CCN(C3CC4(CCN(c5cc(Oc6cnc7[nH]ccc7c6)c(C(=O)NS(=O)(=O)c6cc([N+](=O)[O-])c(NCC7(F)CCOCC7)c7occc67)cc5F)CC4)C3)[C@H](c3ccccc3C(C)C)C2)cn1 [compound 129, (R)-2-((1H-pyrrolo[2,3-b]pyrid-5-yl)oxy)-5-fluoro-N-((7-(((4-fluorotetrahydro-2H-pyran-4-yl)methyl)amino)-6-nitrobenzofuran-4-yl)sulfonyl)-4-(2-(2-(2-isopropylphenyl)-4-((6-methoxypyrid-3-yl)methyl)piperazin-1-yl)-7-azaspiro[3.5]non-7-yl)benzamide]
COc1ccc(CN2CCN(C3CC4(CCN(c5cc(Oc6cnc7[nH]ccc7c6)c(C(=O)NS(=O)(=O)c6cc([N+](=O)[O-])c(NCC7(F)CCOCC7)c7[nH]cnc67)cc5F)CC4)C3)C(c3ccccc3C(C)C)C2)cc1 (centres unmarked) [compound 078, 2-((1H-pyrrolo[2,3-b]pyrid-5-yl)oxy)-5-fluoro-N-((7-(((4-fluorotetrahydro-2H-pyran-4-yl)methyl)amino)-6-nitro-1H-benzo[d]imidazol-4-yl)sulfonyl)-4-(2-(2-(2-isopropylphenyl)-4-(4-methoxybenzyl)piperazin-1-yl)-7-azaspiro[3.5]non-7-yl)benzamide]
COc1ccc(CN2CCN(C3CC4(CCN(c5cc(Oc6cnc7[nH]ccc7c6)c(C(=O)NS(=O)(=O)c6cc([N+](=O)[O-])c(NC[C@H]7CC[C@](C)(O)CC7)c7occc67)cn5)CC4)C3)[C@H](c3ccccc3C(C)C)C2)cc1 [compound 139, 4-((1H-pyrrolo[2,3-b]pyrid-5-yl)oxy)-N-((7-((((1r, 4r)-4-hydroxy-4-methylcyclohexyl)methyl)amino)-6-nitrobenzofuran-4-yl)sulfonyl)-6-(2-((R)-2-(2-isopropylphenyl)-4-(4-methoxybenzyl)piperazin-1-yl)-7-azaspiro[3.5]non-7-yl) nicotinamide]
COc1ccc(CN2CCN(C3CC4(CCN(c5cc(Oc6cnc7[nH]ccc7c6)c(C(=O)NS(=O)(=O)c6cc([N+](=O)[O-])c(NCC7(F)CCOCC7)c7ocnc67)cc5F)CC4)C3)[C@H](c3ccccc3C(C)C)C2)cn1 [compound 127, (R)-2-((1H-pyrrolo[2,3-b]pyrid-5-yl)oxy)-5-fluoro-N-((7-(((4-fluorotetrahydro-2H-pyran-4-yl)methyl)amino)-6-nitrobenzo[d]oxazol-4-yl)sulfonyl)-4-(2-(2-(2-isopropylphenyl)-4-((6-methoxypyrid-3-yl)methyl)piperazin-1-yl)-7-azaspiro[3.5]non-7-yl)benzamide]
CC(C)c1ccccc1[C@@H]1CCCN1C1CC2(CCN(c3cc(Oc4cnc5[nH]ccc5c4)c(C(=O)NS(=O)(=O)c4cc([N+](=O)[O-])c(NCC5CCOCC5)c5c4OCO5)cc3F)CC2)C1 [compound 156, (S)-2-((1H-pyrrolo[2,3-b]pyrid-5-yl)oxy)-5-fluoro-4-(2-(2-(2-isopropylphenyl)pyrrolidin-1-yl)-7-azaspiro[3.5]non-7-yl)-N-((6-nitro-7-(((tetrahydro-2H-pyran-4-yl)methyl)amino)benzo[d][1,3]dioxocyclopent-4-yl)sulfonyl)benzamide]
COc1ccc(CN2CCN(C3CC4(CCN(c5cc(Oc6cnc7[nH]ccc7c6)c(C(=O)NS(=O)(=O)c6cc([N+](=O)[O-])c(NCC7(F)CCOCC7)c7occc67)cn5)CC4)C3)[C@H](c3ccccc3C(C)C)C2)cc1 [compound 135, (R)-4-((1H-pyrrolo[2,3-b]pyrid-5-yl)oxy)-N-((7-(((4-fluorotetrahydro-2H-pyran-4-yl)methyl)amino)-6-nitrobenzofuran-4-yl)sulfonyl)-6-(2-(2-(2-isopropylphenyl)-4-(4-methoxybenzyl)piperazin-1-yl)-7-azaspiro[3.5]non-7-yl) nicotinamide]
